Source: US20230133538A1, “TARGETED DEGRADERS OF ABERRANT TAU BASED ON THE PET TRACER PBB3” (DANA-FARBER CANCER INSTITUTE, INC., priority 2020, published 2023)

How the values were obtained:
[1] = target: T1, tau protein in human tau-P301L neurons (Homo sapiens, UniProt P10636, P618L); assay: Dose-effect on tau in tau-P301L neurons (Western blot, total tau TAU5 and P-Tau S396); type: cell-based; settings: human tau-P301L neurons (6-week differentiated), 24 hours treatment, 1 μM or 10 μM
T1 construct: degrade tau protein in cultured human differentiated frontotemporal lobar dementia (FTD) neurons; endogenous in cells; host or cells: human differentiated FTD neurons, tau-P301L, 6-week differentiated
Description: (§1) Assays were performed according to protocols described in Silva et al., eLife, 8:e45457 (2019). Each of the bispecific compounds, along with the control parental scaffold, was evaluated for the ability to degrade tau protein in cultured human differentiated frontotemporal lobar dementia (FTD) neurons.
(§2) For each condition, 1 well of differentiated neuronal cells (6 well-plate) was washed and collected in PBS, pelleted and lysed in radioimmunoprecipitation assay (RIPA) buffer (Boston BioProducts) with 2% SDS (Sigma), protease inhibitors (Roche cOmplete™ Mini tablets), and phosphatase inhibitors (Sigma), followed by sonication in a water sonicator (Bransonic® Ultrasonic Baths, Thomas Scientific) for 5 minutes, and centrifugation at 20,000 g for 15 minutes. Supernatants were transferred to new tubes, total protein concentration was quantified with the Pierce™ BCA Protein Assay Kit (Thermo Scientific™), and SDS-PAGE gels were loaded with 10 μg total protein per well (pre-boiled samples). Western blots were performed with the Novex NuPAGE™ SDS-PAGE Gel System (Invitrogen™). All samples were resolved in 7% Tris-Acetate gels with Tris-Acetate running buffer (Invitrogen™). Blots were probed with antibodies against total tau (TAU5) and phosphorylated tau (Ser396), along with (3-actin as a loading control; followed by corresponding HRP-linked secondary antibodies (Cell Signaling Technology®), and SuperSignal™ West Pico Chemiluminescent Substrate (Thermo Scientific™) detection. Membranes were exposed to autoradiographic film (LabScientific) and films were scanned using an Epson® Perfection V800 Photo Scanner. Protein band intensities (pixel mean intensity) were quantified using Adobe Photoshop® CS5 Histogram function.
(§3) The vehicle alone (DMSO) had no effect on tau. However, varying degrading activity was observed among the specific compounds with overall similar relative levels of degrading activity between tau-A152T neurons and tau-P301L neurons. Bispecific compounds were added at the doses indicated (either 1 μM or 10 μM).

[2] = target: T2, tau protein in human tau-A152T neurons (Homo sapiens, UniProt P10636, A469T); assay: Dose-effect on tau in tau-A152T neurons (Western blot, total tau TAU5 and P-Tau S396); type: cell-based; settings: human tau-A152T neurons (6-week differentiated), 24 hours treatment, 1 μM or 10 μM
T2 construct: degrade tau protein in cultured human differentiated frontotemporal lobar dementia (FTD) neurons; endogenous in cells; host or cells: human differentiated FTD neurons, tau-A152T, 6-week differentiated
Description: as §1, §2, §3

T2 sequence (P10636 1-441 isoform P10636-8 A152T): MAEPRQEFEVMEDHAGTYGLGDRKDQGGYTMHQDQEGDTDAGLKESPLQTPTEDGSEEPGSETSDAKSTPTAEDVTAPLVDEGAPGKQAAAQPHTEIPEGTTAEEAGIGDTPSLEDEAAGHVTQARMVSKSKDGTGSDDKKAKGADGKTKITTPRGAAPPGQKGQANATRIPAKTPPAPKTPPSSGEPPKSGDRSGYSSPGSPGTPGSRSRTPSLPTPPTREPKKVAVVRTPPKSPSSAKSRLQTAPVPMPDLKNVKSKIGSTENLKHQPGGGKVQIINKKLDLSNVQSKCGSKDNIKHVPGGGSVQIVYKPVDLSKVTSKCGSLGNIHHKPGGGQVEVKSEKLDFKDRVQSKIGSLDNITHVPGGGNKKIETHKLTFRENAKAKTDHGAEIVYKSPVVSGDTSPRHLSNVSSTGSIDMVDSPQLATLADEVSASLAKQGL
T1 sequence (P10636 1-441 isoform P10636-8 P301L): as the sequence (P10636 1-441 isoform P10636-8 A152T) above, with T152A, P301L counted along it

degradation of hyperphosphorylated tau and/or total tau [1]	degradation of hyperphosphorylated tau and/or total tau [2]	Compound
significantly degraded	significantly degraded	CNc1ccc(/C=C/C=C/c2nc3ccc(OCCCCCCNC(=O)COc4cccc5c4C(=O)N(C4CCC(=O)NC4=O)C5=O)cc3s2)cn1 (stereo not drawn) [compound 2, 2-(2-(2,6-dioxopiperidin-3-yl)-1,3-dioxoisoindolin-4-yloxy)-N-(6-(2-((1E,3E)-4-(6-(methylamino)pyridin-3-yl)buta-1,3-dienyl)benzo[d]thiazol-6-yloxy)hexyl)acetamide]
significantly degraded	significantly degraded	CNc1ccc(/C=C/C=C/c2nc3ccc(OCCOCCOCCNC(=O)COc4cccc5c4C(=O)N(C4CCC(=O)NC4=O)C5=O)cc3s2)cn1 (stereo not drawn) [compound 4, 2-(2-(2,6-dioxopiperidin-3-yl)-1,3-dioxoisoindolin-4-yloxy)-N-(2-(2-(2-(2-((1E,3E)-4-(6-(methylamino)pyridin-3-yl)buta-1,3-dienyl)benzo[d]thiazol-6-yloxy)ethoxy)ethoxy)ethyl)acetamide]

Compound	degradation of hyperphosphorylated tau and/or total tau [1]	degradation of hyperphosphorylated tau and/or total tau [2]
Nc1cccc2c1CN(C1CCC(=O)NC1=O)C2=O (stereo not drawn) [Lenalidomide, reference compound]	no effect on tau levels	no effect on tau levels
